Measured values taken from patent US4738977A, “2-pyridylacetic acid derivatives, pharmaceutical composition containing the same and their use in treating ulcers” (Suntory Limited, priority 1985, dated 1988).

How the values were obtained:
[1] = system: gastric acid secretion; assay: Action on Gastric Acid Secretion (Shay Rat, pylorus ligation); type: in vivo, Sprague-Dawley strain male rats; conditions: intraduodenal immediately after pylorus ligation, 4 h gastric juice
Experimental: (§1) For the pharmocological examination of the compounds of the present invention, the following tests were carried out to confirm the effect of inhibiting gastric acid secretion and the protective effect of gastric mucosa. For the toxicity, the test compound was orally administered to six mice of one group to determine the toxicity (LD50) thereof.
1. Action on Gastric Acid Secretion (Shay Rat)
Sprague-Dawley strain male rats weighing 200-240 g were used after being starved for 24 hours (water was given ad libitum). Under ether anesthesia, the abdomen was cut and, after ligation of the pylorus part, then closed, and the rat was starved of both food and water. Four hours later the stomach was removed under ether anesthesia and the gastric juice was collected. The gastric juice collected was centrifuged at 3000 rpm for 10 minutes, the volume of the supernatant was measured, and the acidity was determined by titrating 1 ml of the gastric juice with 0.1 N sodium hydroxide solution to pH 7.0. Further, from the amount of gastric juice and the acidity, the acid output (μEg/4h) was calculated; the percentage of inhibition was determined from the following formula, and the percentage of inhibition versus dose (mg/kg) was then plotted on a semi-logarithmic graph to determine the ED50 value. Each test drug was suspended in physiological saline with a few drops of Tween 80 (available from Nakarai Chemicals Ltd.,) and administered into the duodenum at a proportion of 0.2 ml/100 g-body weight immediately after pylorus ligation. [formula]

[2] = Action on Hydrochloric Acid Plus Ethanol Induced Ulcer; type: in vivo, Sprague-Dawley strain male rats; conditions: rat, oral 30 minutes before HCl-ethanol
Experimental: 2. Action on Hydrochloric Acid Plus Ethanol Induced Ulcer
Sprague-Dawley strain male rats weighing 200-240 g were used after starving for 24 hours. To each rat, a 60% ethanolic solution containing 150 mM of hydrochloric acid was administered orally at a volume of 0.5 ml/100 g-body weight, and the stomach was removed under ether anesthesia 1 hour later. Into the stomach, 10 ml of a 2% formalin solution was injected, and further the stomach was then immersed in a 2% formalin solution for 15 minutes to fix the inner and outer wall of the stomach. The stomach was cut open along the greater curvature, and the length of the damage generated at the glandular portion of the stomach was measured, and the sum of the lengths of the damages of gastric mucosa per one rat was defined as the lesion index (mm), which was compared with a control group to calculate the percentage of inhibition according to the formula shown below, and then the percentage of inhibition versus dose (mg/kg) was plotted on a semi-logarithmic graph to determine the ED50 value. Each test drug was suspended in physiological saline a few drops of Tween 80 and administered orally 30 minutes before administration of the hydrochloric acid ethanolic solution. [formula]

[3] = Toxicity (LD50) in mouse; conditions: in vivo, oral, six mice of one group
Experimental: as §1

[4] = Anti-Aspirin Ulcer Action; type: in vivo, Sprague-Dawley-strain male rats; conditions: rat, into the duodenum, aspirin 150 mg/kg oral, 5 hours
Experimental: 3. Anti-Aspirin Ulcer Action
Sprague-Dawley-strain male rats weighing about 220 g were starved for 24 hours, and with pylorus being ligated under ether anesthesia, the test drug was administered into the duodenum. After recovery from ether anesthesia, 150 mg/kg of aspirin (suspended in 1% CMC) was orally administered. Five hours later, the stomach was removed under ether anesthesia, 10 ml of 2% formalin solution was injected into the stomach, and the stomach was then immersed in a 2% formalin solution for about 15 minutes. The stomach was then cut open along the greater curvature and the length of the damage generated at the glandular portion of the stomach was measured under dissecting microscope (×10) and the sum of the lengths per one rat (mm) was defined as the lesion index. The ED50 value was calculated as described before.

[5] = Anti Stress Ulcer; type: in vivo, Sprague-Dawley-strain male rats; conditions: rat, oral 30 minutes before water immersion stress at 23° C., 5 hours; read-out: Action on anti-stress ulcer (ED50)
Experimental: Sprague-Dawley-strain male rats weighing about 240-260 g were starved for 24 hours, and, 30 minutes after oral administration of the test drug, the rat was placed in a stress cage and stress was loaded by immersing the rat into a water tank maintained at 23° C. to the xiphisternum of the chest. Five hours later, the stomach was removed under ether anesthesia, the same treatment as in the case of aspirin ulcer was applied, and the sum of the lengths (mm) of the mucosa damage generated at the glandular portion of the stomach was defined as the lesion index. The ED50 value was calculated as described before.

[6] = Anti-Duodenal Ulcer Action; type: in vivo, Sprague-Dawley-strain male rats; conditions: rat, indomethacin plus histamine 2HCl
Experimental: 6. Anti-Duodenal Ulcer Action
Sprague-Dawley-strain male rats weighing 200-220 g were starved for 24 hours, and indomethacin (suspended in saline with Tween 80) and histamine 2HCl (dissolved in 10% gelatin solution) were administered following the time schedule shown below. Then, under ether anesthesis, stomach and the duodenal part were removed and 2% formalin solution was injected thereinto. Further, they were immersed in 2% formalin solution for about 15 minutes, and then cut open along the greater curvature to the duodenal part, and the number and area (length in the case of linear ulcer) of the mucosa damages generated at the Corpus, Antrum and Duodenum respectively were measured under stereoscopic microscope (×10), and the sum of the area (mm^2) per one rat was defined as lesion index. The ED50 value was calculated as described before. [drawing 32]

[7] = Anti-Indomethacin Ulcer Action; type: in vivo, Sprague-Dawley-strain male rats; conditions: rat, 30 minutes before indomethacin 30 mg/kg s.c., 5 hours
Experimental: 4. Anti-Indomethacin Ulcer Action
Sprague-Dawley-strain male rats weighing about 200-220 g were starved for 24 hours, and 30 mg/kg of indomethacin (suspended in 1% CMC) was administered subcutaneously. After five hours, the stomach was removed under ether anesthesia, and subsequently the same treatment as in the case of an aspirin ulcer was carried out and the sum of the length (mm) of the damage produced at the glandular portion of the stomach per one rat was defined as lesion index. The test drug was administered 30 minutes before administration of indomethacin. The ED50 value was calculated as described before.

[8] = Toxicity (LD50) in rat; conditions: in vivo, oral

Row | Structure (SMILES) | ED50 [1] | ED50 [2] | further results
1 | CCOC(=O)C(C(=S)NC)c1ccccn1 (stereo not drawn) [Example 1, ethyl 2-methylthiocarbamoyl-2-(2-pyridyl)acetate] | 2.4 mg/kg |  | 
2 | CCNC(=S)C(C(=O)OCC)c1ccccn1 (stereo not drawn) [Example 2, Ethyl 2-ethylthiocarbamoyl-2-(2-pyridyl)acetate] | 4 mg/kg | 6.8 mg/kg | 
3 | C=CCNC(=S)C(C(=O)OCC)c1ccccn1 (stereo not drawn) [Example 3, Ethyl 2-allylthiocarbamoyl-2-(2-pyridyl)acetate] | 3.8 mg/kg |  | 
4 | CCOC(=O)C(C(=S)NC1CCCCC1)c1ccccn1 (stereo not drawn) [Example 4, Ethyl 2-cyclohexylthiocarbamoyl-2-(2-pyridyl)acetate] | 15.5 mg/kg |  | 
5 | CCOC(=O)C(C(=S)Nc1ccccc1)c1ccccn1 (stereo not drawn) [Example 6, Ethyl 2-phenylthiocarbamoyl-2-(2-pyridyl)acetate] | 9.3 mg/kg | 3.4 mg/kg | LD50 [3]: > 1300 mg/kg
6 | CNC(=S)C(C(=O)OCc1ccccc1)c1ccccn1 (stereo not drawn) [Example 8, Benzyl 2-methylthiocarbamoyl-2-(2-pyridyl)acetate] | 12.3 mg/kg |  | 
7 | CNC(=S)C(C(=O)OCC=C(C)C)c1ccccn1 (stereo not drawn) [Example 9, Prenyl 2-methylthiocarbamoyl-2-(2-pyridyl)acetate] | 3.5 mg/kg | 1.1 mg/kg | 
8 | C=CCNC(=S)C(C(=O)OCC=C(C)C)c1ccccn1 (stereo not drawn) [Example 10, Prenyl 2-allylthiocarbamoyl-2-(2-pyridyl)acetate] | 4.4 mg/kg | 7.7 mg/kg | 
9 | CNC(=S)C(C(=O)OC/C=C(\C)CCC=C(C)C)c1ccccn1 (stereo not drawn) [Example 12, Geranyl 2-methylthiocarbamoyl-2-(2-pyridyl)acetate] | 5 mg/kg | 1.4 mg/kg | ED50 [4]: 0.8 mg/kg; ED50 [5]: 5.3 mg/kg; LD50 [3]: > 1300 mg/kg; ED50 [6]: 0.6 mg/kg; ED50 [7]: 0.7 mg/kg
10 | CC(C)=CCC/C(C)=C/COC(=O)C(C(=S)Nc1ccccc1)c1ccccn1 (stereo not drawn) [Example 14, Geranyl 2-phenylthiocarbamoyl-2-(2-pyridyl)acetate] | 36 mg/kg | 3.7 mg/kg | 
11 | CNC(=S)C(C(=O)OC/C=C(\C)CC/C=C(\C)CCC=C(C)C)c1ccccn1 (stereo not drawn) [Example 15, Farnesyl 2-methylthiocarbamoyl-2-(2-pyridyl)acetate] | 5.6 mg/kg | 0.3 mg/kg | 
12 | CC(C)=CCC/C(C)=C/COC(=O)C(C(N)=S)c1ccccn1 (stereo not drawn) [Example 17, geranyl 2-thiocarbamoyl-2-(2-pyridyl)acetate] | 5.3 mg/kg | 2.8 mg/kg | ED50 [4]: 1 mg/kg; ED50 [5]: 4.2 mg/kg; LD50 [3]: > 2000 mg/kg; LD50 [8]: > 2860 mg/kg; ED50 [6]: 1 mg/kg
13 | CC(C)=CCOC(=O)C(C(N)=S)c1ccccn1 (stereo not drawn) [Example 18, Prenyl 2-thiocarbamoyl-2-(2-pyridyl)acetate] | 7.8 mg/kg | 4.5 mg/kg | 
14 | CCCNC(=S)C(C(=O)OCC)c1ccccn1 (stereo not drawn) [Example 19, Ethyl 2-propylthiocarbamoyl-2-(2-pyridyl)acetate] | 3.8 mg/kg |  | 
15 | CCOC(=O)C(C(=S)NCCCO)c1ccccn1 (stereo not drawn) [Example 20, Ethyl 2-(3-hydroxypropyl)thiocarbamoyl-2(2-pyridyl)acetate] |  | 2.3 mg/kg | 
16 | CCOC(=O)C(C(=S)NCc1ccccn1)c1ccccn1 (stereo not drawn) [Example 24, Ethyl 2-(2-pyridyl)methylthiocarbamoyl-2(2-pyridyl)acetate] | 6.4 mg/kg |  | 
